Experiment [1] has as its system DNA polymerase. Put plainly: Screen of PEMs for enhancement of XNTP polymerization (primer extension reaction, gel electrophoresis). It is filed as biochemical. The following applies: FIG. 4 gel; no PEM additive: up to only around 14 XNTPs. From the text:
The Sequencing by Expansion (SBX) methodology developed by the inventors provides significant performance enhancements in sequence read efficiency and accuracy of Xpandomers relative to native DNA. However, initial transcription of the sequence of the natural DNA template onto the measurable Xpandomer relies on the ability of DNA polymerase to utilize XNTPs as substrates (the generalized structure of an XNTP is discussed herein with reference to FIG. 1A and FIG. 2). […] In an effort to improve the efficiency and accuracy of XNTP polymerization into Xpandomers, several PEMs were screened for the ability to enhance DNA polymerase primer extension reactions using XNTPs as substrates.
A representative primer extension reaction may include the following reagents: 2 pmol primer, 2.2 pmol 45mer oligonucleotide template, 50 pmol of each XNTP (XATP, XCTP, XGTP, and XTTP), 50 Mm Tris HCl, Ph 6.79, 200 Mm NaCl, 20% PEG, 5% NMS, 0.5 nmol polyphosphate 60.19, 0.3 Mm MnCl2, and 0.6 μg of purified recombinant DNA polymerase protein. Reactions may be run for 1 hr at 23° C. Reaction products (i.e., constrained Xpandomers) are treated to cleave the phosphoramidate bonds, thereby generating linearized Xpandomers. Reaction products may be analyzed using gel electrophoresis on 4-12% acrylamide gels to resolve and visualize Xpandomer products of different lengths. For the PEM screen described above, PEMs were typically tested in the micro to millimolar range.
Again, this PEM activity is specific for compound 2, as other unrelated aromatic compounds had no effect (lanes 2-7).

The next experiment addresses T1, C4552 DNA polymerase (Saccharolobus solfataricus, UniProt Q97W02, A155G/A42V/D156R/D292Y/D294N/E291S/E324K/E325K/E327K/E79L/G187P/G299W/I153V/I189F/I248T/I295S/K152A/K317Q/K321Q/K56Y/K78D/L293W/M76W/N188Y/P184Q/Q82W/Q83G/R300S/S297Y/S86E/T290K/T301W/V289W/V296Q).
T1 construct: made in house
The experiment is described as follows: Primer extension assay with three 100mer templates derived from the HIV1, 2 and 3 genomes. The following applies: 0.5 Mm PEM; HIV1, HIV2, HIV3 100mer templates; 30 minutes at 23° C.; FIG. 9. The class given is biochemical, Sulfolobus solfataricus. The protocol:
PEM activity of compounds 9-11 was tested in primer extension assays using three 100mer templates, derived from the HIV1, 2, and 3 genomes. Primer extension reactions included the following reagents: 75 Mm TrisCl, Ph 8.44, 175 Mm NH4Oac, 20% PEG8K, 5% NMS, 0.8 nmol PP-60.20, 0.6 Mm MnCl2, 2.3 μg Tth single-strand binding protein (SSB), 0.5 M or 1 M urea, 200 pmol each XNTP, 1.1 pmol template, 1 pmol oligonucleotide primer, 1.2 μg purified recombinant C4552 DNA polymerase, and 0.5 Mm PEM. 10 μL primer extension reactions were run for 30 minutes at 23° C. and reaction products were analyzed by gel electrophoresis.

The target of experiment [2] is T2, C4552 (variant of DPO4 DNA polymerase, SEQ ID NO:1) (Saccharolobus solfataricus, UniProt Q97W02, A155G/A42V/D156R/D292Y/D294N/E291S/E324K/E325K/E327K/E79L/G187P/G299W/I153V/I189F/I248T/I295S/K152A/K317Q/K321Q/K56Y/K78D/L293W/M76W/N188Y/P184Q/Q82W/Q83G/R300S/S297Y/S86E/T290K/T301W/V289W/V296Q).
T2 construct: made in house
T2 sequence (Q97W02 other isoform, or with tags, fused parts or gaps with the stated changes): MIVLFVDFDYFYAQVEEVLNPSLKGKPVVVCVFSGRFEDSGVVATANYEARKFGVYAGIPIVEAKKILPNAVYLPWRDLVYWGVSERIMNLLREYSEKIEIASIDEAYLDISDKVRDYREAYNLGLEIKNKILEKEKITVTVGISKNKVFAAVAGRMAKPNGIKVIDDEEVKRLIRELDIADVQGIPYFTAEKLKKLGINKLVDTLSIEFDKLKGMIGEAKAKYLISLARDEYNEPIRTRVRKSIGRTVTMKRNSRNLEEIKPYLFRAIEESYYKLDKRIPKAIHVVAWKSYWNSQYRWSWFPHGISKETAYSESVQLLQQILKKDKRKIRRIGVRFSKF
Put plainly: XNTP polymerization on longer templates (88, 127, 227, 277 nucleotides). It is filed as biochemical, Sulfolobus solfataricus. The following applies: 1 Mm compound; templates of 88, 127, 227, 277 nucleotides; 1-2 hr at 23° C.; FIG. 8. The protocol: Following the success of accurately replicating templates of up to 80 nucleotides in length into Xpandomers, XNTP polymerization reactions were conducted using four longer templates, consisting of 88, 127, 227, and 277 nucleotides in length. A variant of DPO4 DNA polymerase, referred to as C4552 (SEQ ID NO:1), was used in these polymerization reactions and reaction conditions were optimized for C4552 activity in the presence of PEM compound 1. Other suitable DPO4 polymerase variants include, but are not limited to, those of SEQ ID NO:s 2-5. In addition to 1 Mm compound 1, reaction additives included […] and 2.75 μg single-strand binding protein (Eco SSB). Extension reactions were carried out with 0.85 pmol template, 0.5 pmol oligonucleotide primer, and 1 nmol each XNTP in a final volume of 10 μL. Reactions were run in buffer composed of 50 Mm TrisCl, Ph 8.84, 200 Mm NH4Oac, and 20% PEG8K supplemented with 5% NMS, polyphosphate PP-60.20 in amounts of 3 or 4 nmol, and 2 Mm MnCl2. 1.2 μg purified recombinant DNA polymerase protein was used in each extension reaction and reactions were run for 1-2 hr at 23° C. […] Lanes 1-5 and 6-10 represent identical extension reactions with the exception of the amount of PP-60.20 additive, which was 3 nmol in lanes 1-5 and 4 nmol in lanes 6-10.

Experiment [3] has as its system DNA polymerase. Put plainly: Sequencing by Expansion (SBX) of primer extension products, nanopore reads aligned to template. The class given is biochemical. From the text:
To investigate the accuracy of PEM-dependent enhancement of XNTP polymerization, primer extension products were sequenced using the SBX protocol. Briefly, the constrained Xpandomer products of XNTP polymerization are cleaved to generate linearized Xpandomers. This is accomplished by first quenching the extension reaction with a solution containing 100 Mm EDTA, 2 Mm THPTA, and 2% Tween-20. Then the sample is subjected to amine modification with a solution of 1 M NaHCO3 and 1 M succinic anhydride in DMF. Cleavage of the phosphoramidate bonds is carried out with 37% HCl and linearized Xpandomers are purified with QIAquick columns (QIAGEN, Inc.).
For sequencing, protein nanopores are prepared by inserting a-hemolysin into a DphPE/hexadecane bilayer member in buffer B1, containing 2 M NH4Cl and 100 Mm HEPES, Ph 7.4. The cis well is perfused with buffer B2, containing 0.4 M NH4Cl, 0.6 M GuCl, and 100 Mm HEPES, Ph 7.4. The Xpandomer sample is heated to 70° C. for 2 minutes, cooled completely, then a 2 μL sample is added to the cis well. A voltage pulse of 90 Mv/390 Mv/10 μs is then applied and data is acquired via Labview acquisition software.
Sequence data is analyzed by histogram display of the population of sequence reads from a single SBX reaction. […]

The target in experiment [4] is T3, C4760 DNA polymerase (a variant of DPO4, SEQ ID NO:2) (Saccharolobus solfataricus, UniProt Q97W02, A155G/A42V/D156R/D292Y/D294N/E291S/E324K/E325K/E327K/E63R/E79L/G187P/G299W/I153V/I189F/I248T/I295S/K152A/K317Q/K321Q/K56Y/K78D/L293W/M76W/N188Y/P184Q/Q82W/Q83G/R300S/S297Y/S86E/T290K/T301W/V289W/V296Q).
T3 construct: made in house
T3 sequence (Q97W02 other isoform, or with tags, fused parts or gaps with the stated changes): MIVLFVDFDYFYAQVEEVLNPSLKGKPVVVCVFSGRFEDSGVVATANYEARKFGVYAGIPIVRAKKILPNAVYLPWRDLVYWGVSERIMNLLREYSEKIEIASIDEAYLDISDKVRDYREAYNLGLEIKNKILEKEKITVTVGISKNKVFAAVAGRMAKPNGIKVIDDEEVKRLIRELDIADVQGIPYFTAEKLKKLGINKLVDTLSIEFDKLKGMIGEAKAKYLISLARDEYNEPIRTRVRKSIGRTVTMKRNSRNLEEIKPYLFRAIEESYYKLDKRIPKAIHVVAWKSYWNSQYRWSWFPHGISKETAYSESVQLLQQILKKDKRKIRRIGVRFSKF
The experiment is described as follows: Primer extension assay with a 411mer amplicon template. It is filed as biochemical, Sulfolobus solfataricus. The protocol: PEM activity of compound 15 was tested in primer extension assays using a 411mer amplicon template. Primer extension reactions included the following reagents: 50 Mm TrisCl, 200 Mm NH4Oac, 20% PEG8K, 5% NMS, 3 nmol PP-60.20, 2 Mm MnCl2, 2 μg Kod single-strand binding protein (SSB), 1 M urea, 250 pmol each XNTP, 1 pmol template, 1 pmol oligonucleotide primer, 1.2 μg purified recombinant C4760 DNA polymerase (a variant of DPO4, see SEQ ID NO:2), and 2 (lane 2) or 3 (lane 3) Mm PEM. 10 μL primer extension reactions were run for 20 minutes at 37° C. and reaction products were analyzed by gel electrophoresis. A representative gel showing primer extension products is presented in FIG. 12 (the position of a 277mer is indicated by the arrow). […] Remarkably, the polymerase is completely dependent upon the addition of PEM to the reaction in order to be capable of synthesizing these lengthy Xpandomer products. Even longer extension products may be obtained by optimizing various reaction parameters, e.g., extension time and/or concentrations of various additives.
PEM activity of compound 19, was tested in primer extension assays using the 411mer amplicon template. […] 10 μL primer extension reactions were run for 30 minutes at 37° C. and reaction products were analyzed by gel electrophoresis. […]

3 compounds from patent US12698523B2, “Enhancement of nucleic acid polymerization by aromatic compounds” (priority 2019, dated 2026) can be followed below.

In the case of `O=C(O)c1ccc(-n2cc(-c3cccc(-c4cn(-c5ccc(C(=O)O)c(O)c5)nn4)n3)nn2)cc1O` [Compound 1, 4,4′-(pyridine-2,6-diylbis(1H-1,2,3-triazole-4,1-diyl))bis(2-hydroxybenzoic acid)], in the experiment on DNA polymerase [1], the “DNA polymerase-mediated primer extension with XNTPs (length of extension products)” value was “considerably longer extension products”. Also, the “polymerization of XNTPs into full length Xpandomer copies (PEM activity)” value at C4552 DNA polymerase was “enables polymerization of XNTPs into full length Xpandomer copies of the three different 100mer templates”. For the same compound, the “polymerization of XNTPs into Xpandomer copies of long templates” value in experiment [2] was “complete Xpandomer copies of each longer template”. Further, the “accuracy of SBX sequence reads” value in the experiment with DNA polymerase [3] (45mer template, FIG. 6B, without additive reads not accurate past around base 18) is “increased the accuracy of the sequence reads across the entire length of the 45mer template”; in the experiment with DNA polymerase [3] (60mer and 80mer templates, FIGS. 7A and 7B), “enabled accurate sequence reads completely to the end of each of these longer templates”.
On to `CCOC(=O)c1cc(-c2cn(-c3ccc(O)c(C(=O)O)c3)nn2)nc(-c2cn(-c3ccc(O)c(C(=O)O)c3)nn2)c1` [Compound 15, 5,5′-((4-(ethoxycarbonyl)pyridine-2,6-diyl)bis(1H-1,2,3-triazole-4,1-diyl))bis(2-hydroxybenzoic acid)], for which the “polymerization of XNTPs into lengthy Xpandomer copies (PEM activity)” value in experiment [4] (2 or 3 Mm PEM, 20 minutes at 37° C., FIG. 12) is “enables polymerization of XNTPs into lengthy Xpandomer copies of the 411mer template in a manner comparable to that of compound 14”.
As to `NC(=O)c1cc(-c2cn(-c3ccc(C(=O)O)c(O)c3)nn2)nc(-c2cn(-c3ccc(C(=O)O)c(O)c3)nn2)c1` [Compound 19, 4,4′-((4-carbamoylpyridine-2,6-diyl)bis(1H-1,2,3-triazole-4,1-diyl))bis(2-hydroxybenzoic acid)], in experiment [4] (0.5, 1, or 1.5 Mm PEM, 30 minutes at 37° C., FIG. 14), the “polymerization of XNTPs into lengthy Xpandomer copies (PEM activity)” value is reported as “enables polymerization of XNTPs into lengthy Xpandomer copies of the 411mer template, albeit in a manner less efficient than that of compound 14”.
